{
  "source": "patent US8389247B2",
  "about": "“Physiogenomic method for predicting diabetes and metabolic syndromes induced by psychotropic drugs” (priority 2006, dated 2013)",
  "test": "Outcome variables of patients on each psychotropic drug broken down by demographic factors (Covariates tables)",
  "assay_type": "in vivo, human",
  "source_text": "Various SNPs associated with, for example, the observation of various parameters of metabolic syndromes in patients on psychotropic drugs were screened. The endpoints analyzed were the blood levels of LDL, HDL, and glucose; blood pressure; body mass index; waist circumference; and metabolic syndromes index. The physiogenomic model was developed using the following procedure: 1) Establish a covariate model using only the demographic and clinical variables, 2) Screen for associated genetic markers by testing each SNP against the unexplained residual of the covariate model, and 3) Establish a revised model incorporating the significant associations from the SNP screen.",
  "data": [
    {"smiles": "Cc1nc2n(c(=O)c1CCN1CCC(c3noc4cc(F)ccc34)CC1)CCCC2", "note": "[Risperidone, risperidone]", "values": [
      {"measurement": "BM", "setting": "Age 20-30", "result": 77.82},
      {"measurement": "BMI", "setting": "Age 20-30", "result": 25.55},
      {"measurement": "Glucose", "setting": "Age 20-30", "result": 85.42},
      {"measurement": "HDL", "setting": "Age 20-30", "result": 43.50},
      {"measurement": "LDL", "setting": "Age 20-30", "result": 93.20},
      {"measurement": "TC", "setting": "Age 20-30", "result": 166.80},
      {"measurement": "Waist", "setting": "Age 20-30", "result": 92.78},
      {"measurement": "dBP", "setting": "Age 20-30", "result": 75.20},
      {"measurement": "log (TG)", "setting": "Age 20-30", "result": 4.801},
      {"measurement": "sBP", "setting": "Age 20-30", "result": 116.80},
      {"measurement": "BM", "setting": "Age 30-40", "result": 77.98},
      {"measurement": "BMI", "setting": "Age 30-40", "result": 25.60},
      {"measurement": "Glucose", "setting": "Age 30-40", "result": 93.38},
      {"measurement": "HDL", "setting": "Age 30-40", "result": 52.19},
      {"measurement": "LDL", "setting": "Age 30-40", "result": 92.69},
      {"measurement": "TC", "setting": "Age 30-40", "result": 185.54},
      {"measurement": "Waist", "setting": "Age 30-40", "result": 92.34},
      {"measurement": "dBP", "setting": "Age 30-40", "result": 76.77},
      {"measurement": "log (TG)", "setting": "Age 30-40", "result": 5.129},
      {"measurement": "sBP", "setting": "Age 30-40", "result": 118.04},
      {"measurement": "BM", "setting": "Age 40-50", "result": 77.81},
      {"measurement": "BMI", "setting": "Age 40-50", "result": 25.80},
      {"measurement": "Glucose", "setting": "Age 40-50", "result": 95.03},
      {"measurement": "HDL", "setting": "Age 40-50", "result": 52.00},
      {"measurement": "LDL", "setting": "Age 40-50", "result": 100.78},
      {"measurement": "TC", "setting": "Age 40-50", "result": 181.71},
      {"measurement": "Waist", "setting": "Age 40-50", "result": 97.23},
      {"measurement": "dBP", "setting": "Age 40-50", "result": 75.10},
      {"measurement": "log (TG)", "setting": "Age 40-50", "result": 4.888},
      {"measurement": "sBP", "setting": "Age 40-50", "result": 115.73},
      {"measurement": "BM", "setting": "Age 50-60", "result": 76.52},
      {"measurement": "BMI", "setting": "Age 50-60", "result": 29.45},
      {"measurement": "Glucose", "setting": "Age 50-60", "result": 109.00},
      {"measurement": "HDL", "setting": "Age 50-60", "result": 59.50},
      {"measurement": "LDL", "setting": "Age 50-60", "result": 85.80},
      {"measurement": "TC", "setting": "Age 50-60", "result": 185.70},
      {"measurement": "Waist", "setting": "Age 50-60", "result": 100.50},
      {"measurement": "dBP", "setting": "Age 50-60", "result": 74.20},
      {"measurement": "log (TG)", "setting": "Age 50-60", "result": 5.182},
      {"measurement": "sBP", "setting": "Age 50-60", "result": 123.80},
      {"measurement": "BM", "setting": "Age 60-70", "result": 87.60},
      {"measurement": "BMI", "setting": "Age 60-70", "result": 26.40},
      {"measurement": "Glucose", "setting": "Age 60-70", "result": 103.00},
      {"measurement": "HDL", "setting": "Age 60-70", "result": 54.00},
      {"measurement": "LDL", "setting": "Age 60-70", "result": 111.00},
      {"measurement": "TC", "setting": "Age 60-70", "result": 191.00},
      {"measurement": "Waist", "setting": "Age 60-70", "result": 103.00},
      {"measurement": "dBP", "setting": "Age 60-70", "result": 80.00},
      {"measurement": "log (TG)", "setting": "Age 60-70", "result": 4.875},
      {"measurement": "sBP", "setting": "Age 60-70", "result": 118.00},
      {"measurement": "BM", "setting": "Age <20", "result": 97.73},
      {"measurement": "BMI", "setting": "Age <20", "result": 28.93},
      {"measurement": "Glucose", "setting": "Age <20", "result": 91.67},
      {"measurement": "HDL", "setting": "Age <20", "result": 60.00},
      {"measurement": "LDL", "setting": "Age <20", "result": 113.00},
      {"measurement": "TC", "setting": "Age <20", "result": 197.33},
      {"measurement": "Waist", "setting": "Age <20", "result": 110.33},
      {"measurement": "dBP", "setting": "Age <20", "result": 71.33},
      {"measurement": "log (TG)", "setting": "Age <20", "result": 4.778},
      {"measurement": "sBP", "setting": "Age <20", "result": 123.33},
      {"measurement": "BM", "setting": "All", "result": 78.42},
      {"measurement": "BMI", "setting": "All", "result": 26.16},
      {"measurement": "Glucose", "setting": "All", "result": 94.14},
      {"measurement": "HDL", "setting": "All", "result": 51.37},
      {"measurement": "LDL", "setting": "All", "result": 96.18},
      {"measurement": "TC", "setting": "All", "result": 180.69},
      {"measurement": "Waist", "setting": "All", "result": 95.90},
      {"measurement": "dBP", "setting": "All", "result": 75.40},
      {"measurement": "log (TG)", "setting": "All", "result": 4.958},
      {"measurement": "sBP", "setting": "All", "result": 117.58},
      {"measurement": "BM", "setting": "Gender female", "result": 73.38},
      {"measurement": "BMI", "setting": "Gender female", "result": 27.05},
      {"measurement": "Glucose", "setting": "Gender female", "result": 91.57},
      {"measurement": "HDL", "setting": "Gender female", "result": 55.74},
      {"measurement": "LDL", "setting": "Gender female", "result": 94.32},
      {"measurement": "TC", "setting": "Gender female", "result": 179.74},
      {"measurement": "Waist", "setting": "Gender female", "result": 95.39},
      {"measurement": "dBP", "setting": "Gender female", "result": 74.74},
      {"measurement": "log (TG)", "setting": "Gender female", "result": 4.861},
      {"measurement": "sBP", "setting": "Gender female", "result": 116.84},
      {"measurement": "BM", "setting": "Gender male", "result": 81.45},
      {"measurement": "BMI", "setting": "Gender male", "result": 25.62},
      {"measurement": "Glucose", "setting": "Gender male", "result": 95.68},
      {"measurement": "HDL", "setting": "Gender male", "result": 48.73},
      {"measurement": "LDL", "setting": "Gender male", "result": 97.30},
      {"measurement": "TC", "setting": "Gender male", "result": 181.27},
      {"measurement": "Waist", "setting": "Gender male", "result": 96.20},
      {"measurement": "dBP", "setting": "Gender male", "result": 75.79},
      {"measurement": "log (TG)", "setting": "Gender male", "result": 5.017},
      {"measurement": "sBP", "setting": "Gender male", "result": 118.03},
      {"measurement": "BM", "setting": "Heritage AA", "result": 80.46},
      {"measurement": "BMI", "setting": "Heritage AA", "result": 27.14},
      {"measurement": "Glucose", "setting": "Heritage AA", "result": 115.56},
      {"measurement": "HDL", "setting": "Heritage AA", "result": 58.50},
      {"measurement": "LDL", "setting": "Heritage AA", "result": 95.50},
      {"measurement": "TC", "setting": "Heritage AA", "result": 173.80},
      {"measurement": "Waist", "setting": "Heritage AA", "result": 92.90},
      {"measurement": "dBP", "setting": "Heritage AA", "result": 78.00},
      {"measurement": "log (TG)", "setting": "Heritage AA", "result": 4.478},
      {"measurement": "sBP", "setting": "Heritage AA", "result": 117.80},
      {"measurement": "BM", "setting": "Heritage Cauc.", "result": 78.19},
      {"measurement": "BMI", "setting": "Heritage Cauc.", "result": 26.05},
      {"measurement": "Glucose", "setting": "Heritage Cauc.", "result": 92.00},
      {"measurement": "HDL", "setting": "Heritage Cauc.", "result": 50.58},
      {"measurement": "LDL", "setting": "Heritage Cauc.", "result": 96.25},
      {"measurement": "TC", "setting": "Heritage Cauc.", "result": 181.45},
      {"measurement": "Waist", "setting": "Heritage Cauc.", "result": 96.23},
      {"measurement": "dBP", "setting": "Heritage Cauc.", "result": 75.11},
      {"measurement": "log (TG)", "setting": "Heritage Cauc.", "result": 5.011},
      {"measurement": "sBP", "setting": "Heritage Cauc.", "result": 117.56},
      {"measurement": "BM", "setting": "patients on the named drug", "result": 78.42},
      {"measurement": "BMI", "setting": "patients on the named drug", "result": 26.16},
      {"measurement": "Glucose", "setting": "patients on the named drug", "result": 94.14},
      {"measurement": "HDL", "setting": "patients on the named drug", "result": 51.37},
      {"measurement": "LDL", "setting": "patients on the named drug", "result": 96.18},
      {"measurement": "Log (TG)", "setting": "patients on the named drug", "result": 4.958},
      {"measurement": "TC", "setting": "patients on the named drug", "result": 180.69},
      {"measurement": "Waist", "setting": "patients on the named drug", "result": 95.90},
      {"measurement": "dBP", "setting": "patients on the named drug", "result": 75.40},
      {"measurement": "sBP", "setting": "patients on the named drug", "result": 117.58}
    ]}
  ]
}
